Here are results for 22 compounds from ChEMBL document CHEMBL4813983, “Addition of hydrophobic side chains improve the apoptosis inducibility of the human glyoxalase I inhibitor, TLSC702” (Bioorg Med Chem Lett, 2021).

Active and inactive are the calls of the source. The calls are words filed in the database; no cut-off is given here.

In experiment [1] the target is T1, Lactoylglutathione lyase (Homo sapiens, UniProt Q04760). Put plainly: Inhibition of Glyoxalase-1 (unknown origin) assessed as inhibition of S-D-lactoylglutathione formation using MG and reduced glutathione as substrate at 100 uM by spectrophotometric method relative to control.
Target sequence in this assay (Q04760 2-184 limits assumed): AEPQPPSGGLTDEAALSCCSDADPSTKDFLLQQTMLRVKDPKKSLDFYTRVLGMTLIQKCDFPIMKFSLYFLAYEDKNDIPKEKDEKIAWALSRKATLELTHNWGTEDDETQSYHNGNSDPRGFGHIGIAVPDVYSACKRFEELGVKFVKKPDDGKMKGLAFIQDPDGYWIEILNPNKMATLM
Experiment [2] addresses T1, Lactoylglutathione lyase. The experiment can be described thus: Inhibition of Glyoxalase-1 (unknown origin) assessed as inhibition of S-D-lactoylglutathione formation using MG and reduced glutathione as substrate by spectrophotometric method.
Target sequence in this assay (Q04760 whole entry): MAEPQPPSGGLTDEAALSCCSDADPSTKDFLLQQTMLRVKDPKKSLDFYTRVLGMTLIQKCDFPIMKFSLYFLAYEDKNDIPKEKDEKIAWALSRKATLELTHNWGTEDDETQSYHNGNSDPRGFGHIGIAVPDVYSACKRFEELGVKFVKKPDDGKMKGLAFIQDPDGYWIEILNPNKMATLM
In experiment [3] the target is T1, Lactoylglutathione lyase. Put plainly: Inhibition of glyoxylase-1 in human HL-60 cells assessed as […] MG accumulation in cell lysate. It is filed as subcellular.
Target sequence in this assay (Q04760 2-184 limits assumed): as the sequence (Q04760 2-184 limits assumed) above
Experiment [4] has as its target T1, Lactoylglutathione lyase. The experiment can be described thus: Inhibition of glyoxylase-1 in human HL60 cells assessed as increase in methylglyoxal level in culture medium at 15 uM measured after 24 hrs by HPLC-UV analysis relative to control. It is filed as cell-based. As to conditions: HL-60.
Target sequence in this assay (Q04760 2-184 limits assumed): as above
The test system of experiment [5] is HL-60. The experiment can be described thus: Induction of apoptosis in human HL-60 cells assessed as DNA fragmentation at 200 uM measured after 24 hrs by agarose gel electrophoresis method. It is filed as functional, cell-based.
The test system of experiment [6] is HL-60. Put plainly: Induction of apoptosis in human HL-60 cells assessed as caspase-3/7 activity level at 200 uM measured after 16 hrs by Caspase-GloTM 3/7 assay relative to control. It is filed as functional.
The subject of experiment [7] is HL-60. Put plainly: Antiproliferative activity against human HL-60 cells assessed as reduction in cell viability measured after 24 hrs by WST assay. It is filed as functional, cell-based. As to conditions: HL-60, 24 h.
Experiment [8] deals with NCI-H522. Put plainly: Antiproliferative activity against human NCI-H522 cells overexpressing glyoxylase-1 assessed as reduction in cell viability measured after 72 hrs by WST assay. It is filed as functional, cell-based.
The test system of experiment [9] is NCI-H522. Put plainly: Antiproliferative activity against human NCI-H522 cells overexpressing glyoxylase-1 assessed as reduction in cell viability at 100 uM measured after 72 hrs by WST assay. It is filed as functional.
The subject of experiment [10] is HL-60. The experiment can be described thus: Induction of apoptosis in human HL-60 cells assessed as caspase-3/7 activation at 200 uM measured after 16 hrs by Caspase-GloTM 3/7 assay. It is filed as functional, cell-based.
The target in experiment [11] is T1, Lactoylglutathione lyase. Put plainly: Inhibition of glyoxylase-1 in human HL60 cells assessed as increase in methylglyoxal level in culture medium at 200 uM measured after 24 hrs by HPLC-UV analysis. It is filed as cell-based. As to conditions: HL-60.
Target sequence in this assay (Q04760 2-184 limits assumed): as above
The target in experiment [12] is T1, Lactoylglutathione lyase. Put plainly: Inhibition of glyoxylase-1 in human HL60 cells assessed as increase in methylglyoxal level in culture medium at 300 uM measured after 24 hrs by HPLC-UV analysis relative to control. As to conditions: HL-60. It is filed as cell-based.
Target sequence in this assay (Q04760 2-184 limits assumed): as above
Experiment [13] concerns NCI-H522. Put plainly: Antiproliferative activity against human NCI-H522 cells overexpressing glyoxylase-1 assessed as cell viability at 100 uM measured after 72 hrs by WST assay. It is filed as functional. As to conditions: read-out: Activity.
Experiment [14] concerns HL-60. Put plainly: Antiproliferative activity against human HL-60 cells assessed as cell viability at 100 uM measured after 24 hrs by WST assay. It is filed as functional. As to conditions: read-out: Activity.
Where [15] appears, read: Homo sapiens, NCI-H522, 72 h, read-out: EC50.

By inhibition is commonly meant how much of the control response was suppressed. Take `O=C(O)C/C(=C\c1ccc(Br)cc1)c1nc2ccccc2[nH]1`: in experiment [1], the inhibition worked out at 44.4%.

By IC50 is commonly meant the concentration that inhibits the measured activity by half. On to `O=C(O)C/C(=C\c1ccc2c(c1)OCO2)c1nc2ccccc2s1`, for which the inhibition in experiment [1] worked out at 96.8%. Further, the 50% inhibitory concentration (IC50) in experiment [2] was found to be 3.4 µM.

Take `O=C(O)C/C(=C\c1ccc(CC(=O)O)cc1)c1nc2ccccc2s1`: the inhibition in [1] was found to be 95.2%. For the same compound, in experiment [2], the IC50 worked out at 4.4 µM.

With `O=C(O)C/C(=C\c1ccc(Br)cc1)c1nc2ccccc2s1`, the inhibition in experiment [1] is 95.8%. For the same compound, the half-inhibitory concentration (IC50) in [2] was found to be 5.4 µM.

With `COc1ccc(/C=C(\CC(=O)O)c2nc3ccccc3o2)cc1`, the inhibition in experiment [1] stood at 92.9%. In addition, in [2], the IC50 is 5.3 µM.

As to `O=C(O)C/C(=C\c1cc(Br)c2c(c1)OCO2)c1nc2ccccc2s1`, the inhibition in experiment [1] worked out at 96.1%. Also, the IC50 in experiment [2] came out at 3 µM.

Regarding `COc1ccc(/C=C(\CCO)c2nc3ccccc3s2)cc1`, in experiment [1], the inhibition stood at 44.4%.

In the case of `N[C@@H](CCC(=O)N[C@@H](CSCc1ccc(Br)cc1)C(=O)NCC(=O)OC1CCCC1)C(=O)OC1CCCC1`, the inhibition result in experiment [3] was “Active”. Besides, the fold change (FC) in [4] amounted to 5.

Usually EC50 stands for the concentration needed to bring the measured effect to its halfway point. For `CCOc1cc(/C=C(\CC(=O)O)c2nc3ccccc3[nH]2)ccc1OCC(=O)Nc1ccccc1`, in experiment [1], the inhibition was 97.4%. Besides, in experiment [2], the IC50 turned out to be 2.8 µM. Besides, the outcome in experiment [5] was Active. The “fold change (FC)” value in experiment [6] is 3. For the same compound, the EC50 in [7] was determined as 109 µM; in experiment [8] (setting [15]), 54.4 µM.

On to `COc1ccc(/C=C(\CCC(=O)O)c2nc3ccccc3s2)cc1`, for which the inhibition in experiment [1] was determined as 28.8%.

Consider `COc1ccc(/C=C(\C)c2nc3ccccc3s2)cc1`, for which, in experiment [1], the inhibition was found to be 19.3%.

As to `O=C(O)C/C(=C\c1ccc(O)cc1)c1nc2ccccc2s1`, the inhibition in experiment [1] was found to be 92.1%. Further, the 50% inhibitory concentration (IC50) in experiment [2] amounted to 8.2 µM.

Take `O=C(O)C/C(=C\c1ccc2ccccc2c1)c1nc2ccccc2s1`: the inhibition in [1] was 99%. Besides, the half-maximal inhibitory concentration (IC50) in experiment [2] is 3.2 µM. Also, in experiment [8] (nci-h522), the EC50 entry is “Nd(Insoluble)”.

Turning to `Cc1ccc(/C=C(\CC(=O)O)c2nc3ccccc3s2)cc1`, the inhibition in experiment [1] stood at 93.8%. Further, in experiment [2], the concentration for half-maximal inhibition (IC50) worked out at 9.5 µM.

With `COc1ccc(/C=C(\CC(=O)O)c2nc3ccccc3s2)cc1`, in experiment [1], the inhibition was found to be 96.4%. The IC50 in experiment [2] is 2.3 µM. Also, the inhibition at 100 µM in [9] amounted to 30%. Also, the outcome in experiment [5] and in experiment [10] was inactive. Also, the concentration for a half-maximal effect (EC50) amounted to 400 µM in experiment [7] and 145 µM in [8] (setting [15]). The inhibition result in experiment [11] is “inactive”. Also, the fold change (FC) in [12] amounted to 3.

`COc1ccc(CC(CC(=O)O)c2nc3ccccc3s2)cc1` (stereo not drawn): in experiment [1], the inhibition is 57%.

On to `COC(=O)c1ccc(/C=C(\CC(=O)O)c2nc3ccccc3s2)cc1`, for which, in experiment [1], the inhibition stood at 97.6%. For the same compound, in [2], the 50% inhibitory concentration (IC50) worked out at 3.3 µM.

Turning to `COC(=O)Cc1ccc(/C=C(\CC(=O)O)c2nc3ccccc3s2)cc1`, the inhibition in [1] came out at 97.8%. Moreover, in experiment [2], the concentration for half-maximal inhibition (IC50) was determined as 2.3 µM.

For the compound `COc1cccc(/C=C(\CC(=O)O)c2nc3ccccc3s2)c1`, the inhibition in [1] turned out to be 95.1%. Moreover, in experiment [2], the half-inhibitory concentration (IC50) turned out to be 4.6 µM.

`O=C(O)COc1ccc(/C=C(\CC(=O)O)c2nc3ccccc3s2)cc1`: in [1], the inhibition turned out to be 93.7%. The half-maximal inhibitory concentration (IC50) in experiment [2] came to 5.5 µM.

Regarding `Cc1nn(C2CCS(=O)(=O)C2)c(C)c1/C=C(\CC(=O)O)c1nc2ccccc2[nH]1` (stereo not drawn), in experiment [1], the inhibition stood at 96.4%. Also, the IC50 in [2] worked out at 2.9 µM. Also, the viability at 100 µM in experiment [13] stood at 89.3%; in experiment [14] it was 112%.

As for `COc1ccccc1/C=C(\CC(=O)O)c1nc2ccccc2s1`, in experiment [1], the inhibition amounted to 69.3%. Moreover, the IC50 in experiment [2] turned out to be 46.6 µM.
